Test results from ChEMBL document CHEMBL3596106, “Structure-activity relationship study of E6 as a novel necroptosis inducer” (Bioorg Med Chem Lett, 2015).
Activity calls are given as the source filed them.

test system: Jurkat; assay: Induction of necroptosis in human Jurkat T cells incubated for 24 hrs by ATP-based cell viability assay; assay type: functional; details: Homo sapiens, Jurkat, 24 h; read-out: EC50

SMILES	EC50
CCSc1ccc(-c2ccc(NCc3ccccc3O)cn2)cc1	1920 nM
Cc1cccc(-c2ccc(NCc3ccccc3O)cc2)c1	9190 nM
Oc1ccccc1CNc1ccc(-c2ccccc2)cc1	1820 nM
Cc1ccccc1-c1ccc(NCc2ccccc2O)cc1	5220 nM
Oc1ccccc1CNc1ccc(-c2cccc(F)c2)cc1	2020 nM
COc1ccc(-c2ccc(NCc3ccccc3O)cn2)cc1	4760 nM
Oc1ccccc1CNc1ccc(-c2ccc(F)cc2)nc1	2590 nM
CCCc1ccc(-c2ccc(NCc3ccccc3O)cc2)cc1	2390 nM
Oc1ccccc1CNc1ccc(-c2ccc(F)cc2)cc1	3860 nM
Cc1ccc(-c2ccc(NCc3ccccc3O)cc2)cc1	3790 nM
CC(C)Oc1ccc(-c2ccc(NCc3ccccc3O)cc2)cc1	5940 nM
Oc1ccccc1CNc1ccc(C2CCCCC2)cc1	8800 nM
CCSc1ccc(-c2ccc(NCc3ccccc3O)cc2)cc1	1980 nM
Oc1ccccc1CNc1ccc(-c2ccccc2F)cc1	2150 nM
Oc1ccccc1CNc1ccc(-c2ccc(Cl)cc2)cc1	2390 nM
CCOc1ccc(-c2ccc(NCc3ccccc3O)cc2)cc1	520 nM
COc1ccc(-c2ccc(NCc3ccccc3O)cc2)cc1	580 nM
Cc1cc(NCc2ccccc2O)ccc1-c1ccccc1	8610 nM
Oc1ccccc1CNc1ccc(-c2ccccc2)c(F)c1	2850 nM
CCOc1ccc(-c2ccc(NCc3ccccc3O)cc2)cc1F	2530 nM
Oc1ccccc1CNc1ccc(-c2ccccc2)cc1F	5350 nM
Oc1ccccc1CNc1ccc(-c2ccccc2)nc1	840 nM
Oc1ccccc1CNc1ccc(-c2cccc(Cl)c2)cc1	6200 nM

same assay, conditions: jurkat

SMILES	EC50
CCOc1cccc(-c2ccc(NCc3ccccc3O)cc2)c1	Not Active
O=[N+]([O-])c1ccc(NCc2ccccc2O)cc1	Not Active
Oc1ccccc1CNc1ccc(-c2cccc(OCc3ccccc3)c2)cc1	Not Active
Oc1ccc(-c2ccc(NCc3ccccc3O)cc2)cc1	Not Active
CC(C)(C)c1ccc(-c2ccc(NCc3ccccc3O)cc2)cc1	Not Active
COC(=O)c1ccc(-c2ccc(NCc3ccccc3O)cc2)cc1	Not Active
Oc1ccc(CNc2ccc(C3CCCCC3)cc2)cc1	Not Active
Cc1cccc(CNc2ccc(C3CCCCC3)cc2)c1O	Not Active
COc1ccc(CNc2ccc(C3CCCCC3)cc2)c(O)c1	Not Active
Oc1ccccc1CNc1ccc(N2CCCCC2)cc1	Not Active
Oc1ccccc1CNc1ccc(-c2ccc(C(F)(F)F)cc2)cc1	Not Active
N#Cc1ccccc1-c1ccc(NCc2ccccc2O)cc1	Not Active
N#Cc1ccc(-c2ccc(NCc3ccccc3O)cc2)cc1	Not Active
Cc1cc(-c2ccccc2)ccc1NCc1ccccc1O	Not Active
CC(Nc1ccc(C2CCCCC2)cc1)c1ccccc1O (stereo not given)	Not Active
O=C(Nc1ccc(C2CCCCC2)cc1)c1ccccc1O	Not Active
COc1cccc(-c2ccc(NCc3ccccc3O)cc2)c1	Not Active
c1ccc(CNc2ccc(C3CCCCC3)cc2)cc1	Not Active
Oc1ccccc1NCc1ccc(C2CCCCC2)cc1	Not Active
Oc1cc(-c2ccccc2)ccc1CNc1ccc(C2CCCCC2)cc1	Not Active
Oc1ccccc1CNc1cc(-c2ccccc2)no1	Not Active
CN(Cc1ccccc1O)c1ccc(C2CCCCC2)cc1	Not Active
Oc1ccccc1CNc1ccccc1	Not Active
Oc1ccccc1CNc1ccc(-c2ccc(OC(F)(F)F)cc2)cc1	Not Active
Oc1cccc(-c2ccc(NCc3ccccc3O)cc2)c1	Not Active
CCOc1ccc(-c2ccc(NCc3ccccc3O)cn2)cc1	Not Active

SMILES	EC50
CC(=O)c1ccc(-c2ccc(NCc3ccccc3O)cc2)cc1	Not Active
Oc1ccccc1CNc1ccc(-c2ccc(N3CCOCC3)cc2)nc1	Not Active
Oc1ccccc1Nc1ccc(C2CCCCC2)cc1	Not Active
Oc1ccccc1CCc1ccc(C2CCCCC2)cc1	Not Active
Oc1ccccc1CNc1ccc(-c2ccccc2Cl)cc1	Not Active
Oc1cc(I)ccc1CNc1ccc(C2CCCCC2)cc1	Not Active
Oc1cc(C(F)(F)F)ccc1CNc1ccc(C2CCCCC2)cc1	Not Active
COc1ccccc1-c1ccc(NCc2ccccc2O)cc1	Not Active
Oc1ccccc1CNc1ccc(-c2ccccc2)cn1	Not Active
Oc1ccccc1CNc1ccc(-c2cccc(OC(F)(F)F)c2)cc1	Not Active
Cc1ccc(CNc2ccc(C3CCCCC3)cc2)c(O)c1	Not Active
Oc1ccccc1CNc1ccc(-c2ccc(-c3ccccc3)cc2)cc1	Not Active
Oc1ccccc1CCNc1ccc(C2CCCCC2)cc1	Not Active
Oc1cc(F)ccc1CNc1ccc(C2CCCCC2)cc1	Not Active
Oc1ccccc1CNc1ccc(F)cc1	Not Active
Oc1ccccc1CNc1nc(-c2ccccc2)cs1	Not Active
Cc1ccc(-c2ccc(NCc3ccccc3O)cn2)cc1	Not Active
Oc1ccccc1CNc1ccc(-c2ccc(Cl)cc2)nc1	Not Active
COc1ccccc1CNc1ccc(C2CCCCC2)cc1	Not Active
Oc1ccccc1/C=N/c1ccc(C2CCCCC2)cc1	Not Active
CN1CCN(c2ccc(NCc3ccccc3O)cc2)CC1	Not Active
Oc1ccccc1CNc1ccc(N2CCCC2)cc1	Not Active
Cc1ccc(O)c(CNc2ccc(C3CCCCC3)cc2)c1	Not Active
Oc1ccccc1CNc1ccc(N2CCNCC2)cc1	Not Active
CCCOc1ccc(-c2ccc(NCc3ccccc3O)cc2)cc1	Not Active

test system: Jurkat; assay: Induction of necroptosis in human Jurkat T cells incubated for 24 hrs in presence of RIPK1 inhibitor Nec-1 by ATP-based cell viability assay; assay type: functional; details: not given

SMILES	Activity
Oc1ccccc1CNc1ccc(C2CCCCC2)cc1	Active

test system: Jurkat (Homo sapiens); assay: Potency index, ratio of EC50 for E6 to EC50 for test compound for induction of necroptosis in human Jurkat T cells incubated for 24 hrs by ATP-based cell viability assay; details: not given

SMILES	Ratio EC50
Oc1ccccc1CNc1ccc(-c2ccccc2)cc1	5
CCOc1ccc(-c2ccc(NCc3ccccc3O)cc2)cc1	17
COc1ccc(-c2ccc(NCc3ccccc3O)cc2)cc1	17

test system: Jurkat; assay: Induction of necroptosis in human Jurkat T cells incubated for 24 hrs in presence of caspase inhibitor zVAD.fmk by ATP-based cell viability assay; assay type: functional; details: not given

SMILES	Activity
Oc1ccccc1CNc1ccc(C2CCCCC2)cc1	Active

test system: Jurkat; assay: Induction of necroptosis in human Jurkat T cells incubated for 24 hrs in presence of Nec-8 by ATP-based cell viability assay; assay type: functional; details: not given

SMILES	Activity
Oc1ccccc1CNc1ccc(C2CCCCC2)cc1	inactive
